Data: ChEMBL document CHEMBL1140446, “Designed multiple ligands. An emerging drug discovery paradigm” (J Med Chem, 2005)
pIC50: −log10 of the molar value.

How the values were obtained:
Endothelin-1 receptor = target: T1, Endothelin-1 receptor (Homo sapiens, UniProt P25101); experiment: Inhibitory concentration against endothelin receptor type A
T1 sequence (P25101 whole entry): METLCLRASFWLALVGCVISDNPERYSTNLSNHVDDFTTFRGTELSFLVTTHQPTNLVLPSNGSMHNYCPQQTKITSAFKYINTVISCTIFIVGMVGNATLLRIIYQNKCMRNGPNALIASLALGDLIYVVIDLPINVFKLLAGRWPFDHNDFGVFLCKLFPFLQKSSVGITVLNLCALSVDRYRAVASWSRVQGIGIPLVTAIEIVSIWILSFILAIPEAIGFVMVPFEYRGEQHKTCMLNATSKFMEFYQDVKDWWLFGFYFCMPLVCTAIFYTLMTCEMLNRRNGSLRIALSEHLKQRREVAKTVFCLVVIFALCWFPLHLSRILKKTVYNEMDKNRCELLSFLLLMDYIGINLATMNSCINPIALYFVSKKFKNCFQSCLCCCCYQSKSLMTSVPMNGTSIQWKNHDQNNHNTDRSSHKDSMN

[1] = target: T2, Type-1 angiotensin II receptor (Homo sapiens, UniProt P30556)
T2 sequence (P30556 whole entry): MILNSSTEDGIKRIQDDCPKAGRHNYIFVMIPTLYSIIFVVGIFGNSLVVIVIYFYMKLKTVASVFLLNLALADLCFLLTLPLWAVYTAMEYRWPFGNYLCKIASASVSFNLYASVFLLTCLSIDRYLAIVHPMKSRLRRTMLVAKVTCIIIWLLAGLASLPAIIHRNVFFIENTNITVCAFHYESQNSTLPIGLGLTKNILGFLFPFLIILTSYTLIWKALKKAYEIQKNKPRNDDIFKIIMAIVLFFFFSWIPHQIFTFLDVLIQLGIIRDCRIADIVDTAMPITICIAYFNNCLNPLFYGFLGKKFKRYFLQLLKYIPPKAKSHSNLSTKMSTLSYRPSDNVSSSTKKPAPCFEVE
Description: Inhibitory concentration against angiotensin II receptor, type 1

[2] = target: T3, Type-2 angiotensin II receptor (Homo sapiens, UniProt P50052)
T3 sequence (P50052 whole entry): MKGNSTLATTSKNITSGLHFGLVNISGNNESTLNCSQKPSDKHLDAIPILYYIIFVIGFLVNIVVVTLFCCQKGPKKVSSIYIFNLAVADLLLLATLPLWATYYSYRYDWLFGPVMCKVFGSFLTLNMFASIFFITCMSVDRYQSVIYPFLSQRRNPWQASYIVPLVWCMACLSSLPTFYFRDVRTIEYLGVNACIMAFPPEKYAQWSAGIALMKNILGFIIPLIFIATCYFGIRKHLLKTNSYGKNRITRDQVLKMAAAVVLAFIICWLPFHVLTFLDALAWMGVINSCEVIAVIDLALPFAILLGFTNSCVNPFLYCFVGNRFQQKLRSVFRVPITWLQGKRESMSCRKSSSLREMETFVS
Description: Inhibitory concentration against angiotensin II receptor, type 2

[3] = target: Endothelin receptor type B (Homo sapiens, UniProt P24530)
Endothelin receptor type B, sequence (P24530 whole entry): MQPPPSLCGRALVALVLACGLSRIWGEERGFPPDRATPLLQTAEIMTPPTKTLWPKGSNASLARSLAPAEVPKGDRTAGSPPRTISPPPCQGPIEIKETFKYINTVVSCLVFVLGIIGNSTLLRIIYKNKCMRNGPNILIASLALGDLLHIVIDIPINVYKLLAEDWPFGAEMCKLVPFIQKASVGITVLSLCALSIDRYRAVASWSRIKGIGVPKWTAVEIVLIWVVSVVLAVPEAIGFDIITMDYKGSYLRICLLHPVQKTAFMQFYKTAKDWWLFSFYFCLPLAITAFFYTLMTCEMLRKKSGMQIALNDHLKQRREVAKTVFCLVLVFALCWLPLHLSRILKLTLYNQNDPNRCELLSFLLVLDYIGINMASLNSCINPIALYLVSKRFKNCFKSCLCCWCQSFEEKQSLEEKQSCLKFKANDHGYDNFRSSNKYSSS
Description: Inhibitory concentration against endothelin receptor type B

What does the source list for `CCCc1cc(Cn2c(CC)nc3c(C)cc(C)nc32)ccc1OC(C(=O)NS(=O)(=O)c1ccc(C(C)C)cc1)c1ccc2c(c1)OCC2` (centres undefined)?
pIC50 (Endothelin-1 receptor): 7.62; pIC50 [1]: 7.89; pIC50 [2]: 7.49; pIC50 [3]: 7.22
